Experimental data from patent publication US20230002334A1, “TRPM8 MODULATORS” (Givaudan SA, priority 2019, published 2023).

Biological target: T1, hTRPM8 (Homo sapiens, UniProt Q7Z2W7)
T1 construct: expressed in transfected cells
Test: Assay on TRPM8 modulators: calcium imaging (Fluo-4, Flexstation) in HEK293 cell line stably expressing hTRPM8
Type: cell-based
Details: HEK293 cells stably expressing hTRPM8, calcium influx, sigmoidal dose-response fit; read-out: EC50
Procedure: A HEK293 cell line stably expressing hTRPM8 was generated according to Klein et al., (Chem. Senses 36: 649-658, 2011) and receptor activation was monitored by calcium imaging in a Flexstation. For Ca-imaging assays of TRPM8 channel activation, cells were seeded on day 0 at a density of 12000 cells per well in Dulbecco's modified Eagle medium (DMEM) containing 9% foetal bovine serum in black, clear bottom 96-well plates that had been coated with 0.001% polyethyleneimine (molecular weight=60 000, Acros Organics). On day 2, agonists were evaluated via calcium imaging using Fluo-4. Briefly, growth medium was discarded, and the cells were incubated in the dark for 1 h at 37° C. in 50 μL loading buffer consisting of 2.7 μM Fluo-4 AM (Invitrogen) and […] probenecid (Sigma-Aldrich) in DMEM (without serum). After incubation, the plates were washed five times with 100 μL of assay buffer (in mM: 130 NaCl, 5 KCl, 10 HEPES, 2 CaCl2, and 10 glucose, pH7.4.) and further incubated in the dark at room temperature for 30 min. The cells were then washed five times with 100 μL assay buffer and then calcium influx to serial dilutions of inventive compounds were measured in a Flexstation 3 (Molecular Devices). Receptor activation was initiated following addition of 20 μl of a 10-fold concentrated ligand stock solution, which is also prepared in assay buffer. Fluorescence was continuously monitored for 15 seconds prior to ligand addition and for 105 seconds after ligand addition, for a total of 120 seconds. Maximal receptor activation in relation to solvent control and relative to 31.6 μM menthol is determined. Data from serial dilutions were processed with a KNIME workflow to fit a sigmoidal dose-response curve and to extrapolate EC50 values.

T1 sequence (Q7Z2W7 whole entry): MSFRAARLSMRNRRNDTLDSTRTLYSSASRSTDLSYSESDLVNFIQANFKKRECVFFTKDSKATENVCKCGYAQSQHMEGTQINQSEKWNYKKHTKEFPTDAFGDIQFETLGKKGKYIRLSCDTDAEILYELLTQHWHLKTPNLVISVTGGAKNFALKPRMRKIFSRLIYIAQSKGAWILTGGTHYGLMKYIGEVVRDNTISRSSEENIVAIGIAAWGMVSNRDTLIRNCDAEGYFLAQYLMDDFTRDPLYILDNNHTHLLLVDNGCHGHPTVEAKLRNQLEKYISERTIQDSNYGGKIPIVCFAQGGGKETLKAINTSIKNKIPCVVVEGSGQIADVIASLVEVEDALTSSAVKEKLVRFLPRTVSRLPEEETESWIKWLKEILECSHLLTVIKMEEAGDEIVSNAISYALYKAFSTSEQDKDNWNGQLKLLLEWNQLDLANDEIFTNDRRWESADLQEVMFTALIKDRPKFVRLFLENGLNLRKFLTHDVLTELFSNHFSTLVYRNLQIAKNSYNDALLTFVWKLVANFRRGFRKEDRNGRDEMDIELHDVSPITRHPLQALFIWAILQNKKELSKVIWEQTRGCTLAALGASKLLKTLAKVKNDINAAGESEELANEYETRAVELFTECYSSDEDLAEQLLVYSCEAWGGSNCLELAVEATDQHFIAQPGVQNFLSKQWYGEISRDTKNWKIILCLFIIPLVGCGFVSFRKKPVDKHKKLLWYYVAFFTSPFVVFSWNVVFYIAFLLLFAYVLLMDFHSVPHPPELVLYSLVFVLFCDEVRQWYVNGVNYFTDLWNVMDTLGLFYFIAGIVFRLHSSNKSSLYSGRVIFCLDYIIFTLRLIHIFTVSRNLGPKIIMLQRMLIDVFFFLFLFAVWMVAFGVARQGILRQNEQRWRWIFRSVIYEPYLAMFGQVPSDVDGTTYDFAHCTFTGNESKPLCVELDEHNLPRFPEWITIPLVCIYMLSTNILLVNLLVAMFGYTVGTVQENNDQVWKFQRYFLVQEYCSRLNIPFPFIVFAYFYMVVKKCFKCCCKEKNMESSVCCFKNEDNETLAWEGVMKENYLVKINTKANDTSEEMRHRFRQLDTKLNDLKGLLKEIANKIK

| SMILES | EC50 [nM] |
| --- | --- |
| C[C@H]1C[C@@](C)(c2cc(F)ccc2F)C[C@@H]2[C@@H]1N(C)OC2(C)C (racemic) [Compound 73, rac-(3aR,5R,7S,7aR)-5-(2,5-difluorophenyl)-1,3,3,5,7-pentamethyloctahydrobenzo[c]isoxazole] | 50 to 300 |
| CC1CC(C)(c2cccnc2)CC2C1N(C)OC2(C)C (centres unmarked) [Compound 3, 1,3,3,5,7-pentamethyl-5-(pyridin-3-yl)octahydrobenzo[c]isoxazole] | 1000 to 35000 |
| C[C@H]1C[C@@H](c2ccccc2)C[C@@H]2[C@@H]1N(C)OC2(C)C (racemic) [Compound 52, rac-(3aR,5R,7S,7aR)-1,3,3,7-tetramethyl-5-phenyloctahydrobenzo[c]isoxazole] | 50 to 300 |
| Cc1ccc(C#N)cc1[C@@]1(C)C[C@@H]2[C@@H]([C@@H](C)C1)N(C(C)C)OC2(C)C (racemic) [Compound 126, rac-3-((3aR,5R,7S,7aR)-1-isopropyl-3,3,5,7-tetramethyloctahydrobenzo[c]isoxazol-5-yl)-4-methylbenzonitrile] | 50 to 300 |
| CSc1ccccc1[C@]1(C)C[C@@H](C)[C@@H]2[C@@H](C1)C(C)(C)ON2C (racemic) [Compound 31, rac-(3aR,5R,7R,7aR)-1,3,3,5,7-pentamethyl-5-(2-(methylthio)phenyl)octahydrobenzo[c]isoxazole] | 1000 to 35000 |
| COc1ccccc1[C@@]1(C)C[C@@H]2[C@@H]([C@@H](C)C1)N(C(C)C)OC2(C)C (racemic) [Compound 65, rac-(3aR,5R,7S,7aR)-1-isopropyl-5-(2-methoxyphenyl)-3,3,5,7-tetramethyloctahydrobenzo[c]isoxazole] | 50 to 300 |
| CCc1ccccc1[C@@]1(C)C[C@@H]2[C@@H]([C@@H](C)C1)N(C)OC2(C)C (racemic) [Compound 78, rac-(3aR,5R,7S,7aR)-5-(2-ethylphenyl)-1,3,3,5,7-pentamethyloctahydrobenzo[c]isoxazole] | 50 to 300 |
| Cc1ccccc1[C@H]1C[C@@H]2[C@@H]([C@@H](C)C1)N(C)OC2(C)C (racemic) [Compound 51, rac-(3aR,5R,7S,7aR)-1,3,3,7-tetramethyl-5-(o-tolyl)octahydrobenzo[c]isoxazole] | 300 to 1000 |
| C[C@H]1C[C@@](C)(c2ccc(Cl)c(C#N)c2)C[C@@H]2[C@@H]1N(C)OC2(C)C (racemic) [Compound 121, rac-2-chloro-5-((3aR,5R,7S,7aR)-1,3,3,5,7-pentamethyloctahydrobenzo[c]isoxazol-5-yl)benzonitrile] | < 50 |
| CCN1OC(C)(C)[C@@H]2C[C@](C)(CC=C(C)C)C[C@@H](C)[C@H]21 (racemic) [Compound 32, rac-(3aR,5R,7R,7aR)-1-ethyl-3,3,5,7-tetramethyl-5-(3-methylbut-2-en-1-yl)octahydrobenzo[c]isoxazole] | 1000 to 35000 |
| CC(C)N1OC(C)(C)[C@@H]2C[C@](C)(c3cccc(C#N)c3)C[C@H](C)[C@H]21 (racemic) [Compound 127, rac-3-((3aR,5R,7S,7aR)-1-isopropyl-3,3,5,7-tetramethyloctahydrobenzo[c]isoxazol-5-yl)benzonitrile] | < 50 |
| C[C@@H]1C[C@@](C)(c2ccc(Cl)c(C#N)c2)C[C@H]2[C@H]1N(C)OC2(C)C (racemic) [Compound 122, rac-2-chloro-5-((3aS,5R,7R,7aS)-1,3,3,5,7-pentamethyloctahydrobenzo[c]isoxazol-5-yl)benzonitrile] | 1000 to 35000 |
| CC(C)=CCC1(C)CC(C)C2C(C1)C(C)(C)ON2C(C)C (centres unmarked) [Compound 10, 1-isopropyl-3,3,5,7-tetramethyl-5-(3-methylbut-2-en-1-yl)octahydrobenzo[c]isoxazole] | 300 to 1000 |
| CSc1ccc([C@@]2(C)C[C@@H]3[C@@H]([C@@H](C)C2)N(C)OC3(C)C)cc1 (racemic) [Compound 40, rac-(3aR,5R,7S,7aR)-1,3,3,5,7-pentamethyl-5-(4-(methylthio)phenyl)octahydrobenzo[c]isoxazole] | 50 to 300 |
| Cc1ccc(Cl)cc1[C@H]1C[C@@H]2[C@@H]([C@@H](C)C1)N(C(C)C)OC2(C)C (racemic) [Compound 106, rac-(3aR,5R,7S,7aR)-5-(5-chloro-2-methylphenyl)-1-isopropyl-3,3,7-trimethyloctahydrobenzo[c]isoxazole] | 300 to 1000 |
| Cc1ccc([C@@]2(C)C[C@@H]3[C@@H]([C@@H](C)C2)N(C)OC3(C)C)cc1 (racemic) [Compound 47, rac-(3aR,5R,7S,7aR)-1,3,3,5,7-pentamethyl-5-(p-tolyl)octahydrobenzo[c]isoxazole] | 50 to 300 |

| SMILES | EC50 [nM] |
| --- | --- |
| COc1ccc(C#N)cc1[C@H]1C[C@@H]2[C@@H]([C@@H](C)C1)N(C(C)C)OC2(C)C (racemic) [Compound 128, rac-3-((3aR,5R,7S,7aR)-1-isopropyl-3,3,7-trimethyloctahydrobenzo[c]isoxazol-5-yl)-4-methoxybenzonitrile] | < 50 |
| Cc1ccc([C@@]2(C)C[C@@H]3[C@@H]([C@@H](C)C2)N(C)OC3(C)C)c(C)c1 (racemic) [Compound 71, rac-(3aR,5R,7S,7aR)-5-(2,4-dimethylphenyl)-1,3,3,5,7-pentamethyloctahydrobenzo[c]isoxazole] | 50 to 300 |
| CC1CC(C)C2C(C1)C1(CCCC1)ON2C(C)C (centres unmarked) [Compound 13, 1-isopropyl-5,7-dimethylhexahydro-1H-spiro[benzo[c]isoxazole-3,1-cyclopentane]] | 1000 to 35000 |
| Cc1cc(C)cc([C@@]2(C)C[C@@H]3[C@@H]([C@@H](C)C2)N(C(C)C)OC3(C)C)c1 (racemic) [Compound 88, rac-(3aR,5R,7S,7aR)-5-(3,5-dimethylphenyl)-1-isopropyl-3,3,5,7-tetramethyloctahydrobenzo[c]isoxazole] | 300 to 1000 |
| CCN1OC(C)(C)[C@@H]2C[C@](C)(c3cc(C#N)ccc3C)C[C@H](C)[C@H]21 (racemic) [Compound 125, rac-3-((3aR,5R,7S,7aR)-1-ethyl-3,3,5,7-tetramethyloctahydrobenzo[c]isoxazol-5-yl)-4-methylbenzonitrile] | < 50 |
| C[C@H]1C[C@@](C)(c2ccc(C#N)cc2)C[C@@H]2[C@@H]1N(C)OC2(C)C (racemic) [Compound 131, rac-4-((3aR,5R,7S,7aR)-1,3,3,5,7-pentamethyloctahydrobenzo[c]isoxazol-5-yl)benzonitrile] | 50 to 300 |
| CC[C@@H]1CC[C@@H]2[C@@H](C1)C(C)(C)ON2C(C)C (racemic) [Compound 30, rac-(3aR,5R,7aR)-5-ethyl-1-isopropyl-3,3-dimethyloctahydrobenzo[c]isoxazole] | 1000 to 35000 |
| C[C@H]1C[C@@](C)(c2cc(F)cc(C(F)(F)F)c2)C[C@@H]2[C@@H]1N(C)OC2(C)C (racemic) [Compound 91, rac-(3aR,5R,7S,7aR)-5-(3-fluoro-5-(trifluoromethyl)phenyl)-1,3,3,5,7-pentamethyloctahydrobenzo[c]isoxazole] | 300 to 1000 |
| C[C@H]1C[C@@](C)(c2ccccc2F)C[C@@H]2[C@@H]1N(C)OC2(C)C (racemic) [Compound 81, rac-(3aR,5R,7S,7aR)-5-(2-fluorophenyl)-1,3,3,5,7-pentamethyloctahydrobenzo[c]isoxazole] | 50 to 300 |
| Cc1ccc([C@@]2(C)C[C@@H]3[C@@H]([C@@H](C)C2)N(C)OC3(C)C)cc1C#N (racemic) [Compound 123, rac-2-methyl-5-((3aR,5R,7S,7aR)-1,3,3,5,7-pentamethyloctahydrobenzo[c]isoxazol-5-yl)benzonitrile] | 50 to 300 |
| COc1ccc([C@@]2(C)C[C@@H]3[C@@H]([C@@H](C)C2)N(C)OC3(C)C)cc1 (racemic) [Compound 104, rac-(3aR,5R,7S,7aR)-5-(4-methoxyphenyl)-1,3,3,5,7-pentamethyloctahydrobenzo[c]isoxazole] | 300 to 1000 |
| Cc1ccc([C@H]2C[C@@H]3[C@@H]([C@@H](C)C2)N(C)OC3(C)C)c(C)c1 (racemic) [Compound 72, rac-(3aR,5R,7S,7aR)-5-(2,4-dimethylphenyl)-1,3,3,7-tetramethyloctahydrobenzo[c]isoxazole] | 50 to 300 |
| COc1ccc(C#N)cc1[C@@]1(C)C[C@@H]2[C@@H]([C@@H](C)C1)N(C)OC2(C)C (racemic) [Compound 133, rac-4-methoxy-3-((3aR,5R,7S,7aR)-1,3,3,5,7-pentamethyloctahydrobenzo[c]isoxazol-5-yl)benzonitrile] | < 50 |
| Cc1cc(F)ccc1[C@@]1(C)C[C@@H]2[C@@H]([C@@H](C)C1)N(C)OC2(C)C (racemic) [Compound 100, rac-(3aR,5R,7S,7aR)-5-(4-fluoro-2-methylphenyl)-1,3,3,5,7-pentamethyloctahydrobenzo[c]isoxazole] | < 50 |
| Cc1ccc(C#N)cc1[C@@]1(C)C[C@@H](C)[C@H]2[C@H](C1)C(C)(C)ON2C (stereo in doubt) [Compound 139, rel-4-methyl-3-((3aS,5S,7R,7aS)-1,3,3,5,7-pentamethyloctahydrobenzo[c]isoxazol-5-yl)benzonitrile] | 50 to 300 |
| CC1CC(C)C2C(C1)C1(CCCC1)ON2C (centres unmarked) [Compound 8, 1,5,7-trimethylhexahydro-1H-spiro[benzo[c]isoxazole-3,1′-cyclopentane]] | 1000 to 35000 |
